Earlier results as cited in patent US20170083675A1, “Method for Selecting Patient Subpopulation for Custirsen Treatment” (OncoGenex Technologies Inc., priority 2015, published 2017).

System: metastatic castrate resistant prostate cancer (CRPC)
Settings: second-line chemotherapy

In the case of `CO[C@H]1C(=O)[C@]2(C)[C@@H](OC)C[C@H]3OC[C@@]3(OC(C)=O)[C@H]2[C@H](OC(=O)c2ccccc2)[C@]2(O)C[C@H](OC(=O)[C@H](O)[C@@H](NC(=O)OC(C)(C)C)c3ccccc3)C(C)=C1C2(C)C` [cabazitaxel], the “survival compared to mitoxantrone (in words)” value is listed as “survival advantage”.
